Source: ChEMBL document CHEMBL3885881, “DrugMatrix”

Species on record: Rattus norvegicus
Assay: DrugMatrix - Regimen: Daily Repeat
Assay type: toxicity, organism-based, Sprague-Dawley
Design: regimen Daily Repeat, gender Male, age 6-8 weeks
Conditions: in vivo; for ALANINE AMINOTRANSFERASE / ALBUMIN / ALKALINE PHOSPHATASE / ASPARTATE AMINOTRANSFERASE / BLOOD UREA NITROGEN / CARBON DIOXIDE / CHLORIDE / CHOLESTEROL / CREATINE PHOSPHOKINASE / CREATININE / GLUCOSE / LACTATE DEHYDROGENASE / LIPASE / PHOSPHORUS / POTASSIUM / SODIUM / TOTAL BILIRUBIN / TOTAL PROTEIN / URIC ACID: tissue Plasma
[1] = iv, 43 mg/kg, 72 h, tissue Blood, dose level High, time 3 day, vehicle 100 % SALINE
[2] = iv, 43 mg/kg, 72 h, dose level High, time 3 day, vehicle 100 % SALINE
[3] = iv, 43 mg/kg, 120 h, tissue Blood, dose level High, time 5 day, vehicle 100 % SALINE
[4] = iv, 43 mg/kg, 120 h, dose level High, time 5 day, vehicle 100 % SALINE
[5] = po, 0 mg/kg, 72 h, tissue Blood, route oral GAVAGE, dose level Control, time 3 day, […]
[6] = po, 0 mg/kg, 72 h, route oral GAVAGE, dose level Control, time 3 day, […]

## CC(CCc1ccc(O)cc1)NCCc1ccc(O)c(O)c1 (stereo unspecified) [DOBUTAMINE]
[1]
  MONOCYTE: 1%
  NEUTROPHIL: 4%
  NUCLEATED RED BLOOD CELLS: 0 /100WBC
  PLATELET COUNT: 1374.33 x10E3/uL
[2]
  ALANINE AMINOTRANSFERASE: 75.67 u/L
  ALBUMIN: 4.37 G/DL
  ALKALINE PHOSPHATASE: 486 u/L
  ASPARTATE AMINOTRANSFERASE: 91 u/L
  BLOOD UREA NITROGEN: 18 mg/dL
  CARBON DIOXIDE: 29.67 mmol/L
  CHLORIDE: 98.33 MEQ/L
  CHOLESTEROL: 67.33 mg/dL
  CREATINE PHOSPHOKINASE: 326 u/L
  CREATININE: 0.19 mg/dL
  GLUCOSE: 190 mg/dL
  LACTATE DEHYDROGENASE: 114.33 u/L
  LIPASE: 10 u/L
  PHOSPHORUS: 13.03 mg/dL
  POTASSIUM: 6.8 MEQ/L
  SODIUM: 143.43 MEQ/L
  TOTAL BILIRUBIN: 0.17 mg/dL
  TOTAL PROTEIN: 6.27 G/DL
  URIC ACID: 2.17 mg/dL
[3]
  ABSOLUTE BASOPHIL: 0 CELLS/uL
  ABSOLUTE EOSINOPHIL: 0 CELLS/uL
  ABSOLUTE LYMPHOCYTE: 14283 CELLS/uL
  ABSOLUTE MONOCYTE: 137.67 CELLS/uL
  ABSOLUTE SEGMENTED NEUTROPHIL: 1112.67 CELLS/uL
  BASOPHIL: 0%
  EOSINOPHIL: 0%
  ERYTHROCYTE COUNT: 5.95 x10E6/uL
  HEMATOCRIT: 37.37%
  HEMOGLOBIN: 14.87 G/DL
  LEUKOCYTE COUNT: 15.53 x10E3/uL
  LYMPHOCYTE: 91.33%
  MEAN CORPUSCULAR HEMOGLOBIN: 25.13 pg
  MEAN CORPUSCULAR HEMOGLOBIN CONCENTRATION: 39.87 G/DL
  MEAN CORPUSCULAR VOLUME: 63.03 fL
  MONOCYTE: 1%
  NEUTROPHIL: 7.67%
  NUCLEATED RED BLOOD CELLS: 0 /100WBC
  PLATELET COUNT: 1213.67 x10E3/uL
[4]
  ALANINE AMINOTRANSFERASE: 48 u/L
  ALBUMIN: 4.33 G/DL
  ALKALINE PHOSPHATASE: 380 u/L
  ASPARTATE AMINOTRANSFERASE: 78.67 u/L
  BLOOD UREA NITROGEN: 19 mg/dL
  CARBON DIOXIDE: 29 mmol/L
  CHLORIDE: 100.67 MEQ/L
  CHOLESTEROL: 74.33 mg/dL
  CREATINE PHOSPHOKINASE: 277.67 u/L
  CREATININE: 0.24 mg/dL
  GLUCOSE: 147 mg/dL
  LACTATE DEHYDROGENASE: 321.33 u/L
  LIPASE: 9.33 u/L
  PHOSPHORUS: 10.77 mg/dL
  POTASSIUM: 6.44 MEQ/L
  SODIUM: 143.33 MEQ/L
  TOTAL BILIRUBIN: 0.2 mg/dL
  TOTAL PROTEIN: 6.2 G/DL
  URIC ACID: 1.5 mg/dL
[5]
  ABSOLUTE BASOPHIL: 50 cells/µL
  ABSOLUTE EOSINOPHIL: 43.3 cells/µL
  ABSOLUTE LYMPHOCYTE: 9670 cells/µL
  ABSOLUTE MONOCYTE: 210 cells/µL
  BASOPHIL: 0.4%
  EOSINOPHIL: 0.37%
  ERYTHROCYTE COUNT: 6.82 x10E6/uL
  HEMATOCRIT: 46.77%
  HEMOGLOBIN: 14.53 G/DL
  LEUKOCYTE COUNT: 11.77 x10E3/uL
  LYMPHOCYTE: 82.1%
  MEAN CORPUSCULAR HEMOGLOBIN: 21.33 pg
  MEAN CORPUSCULAR HEMOGLOBIN CONCENTRATION: 31.13 G/DL
  MEAN CORPUSCULAR VOLUME: 68.57 fL
  MONOCYTE: 1.8%
  NEUTROPHIL: 14.83%
  PLATELET COUNT: 1303.33 x10E3/uL
[6]
  ALANINE AMINOTRANSFERASE: 46.67 u/L
  ALBUMIN: 4.17 G/DL
  ALKALINE PHOSPHATASE: 530 u/L
  ASPARTATE AMINOTRANSFERASE: 81.33 u/L
  BLOOD UREA NITROGEN: 17.67 mg/dL
  CARBON DIOXIDE: 41.67 mmol/L
  CHLORIDE: 102 MEQ/L
  CHOLESTEROL: 70.33 mg/dL
  CREATINE PHOSPHOKINASE: 372.67 u/L
  CREATININE: 0.5 mg/dL
  GLUCOSE: 184 mg/dL
  LIPASE: 13.33 u/L
  PHOSPHORUS: 10.2 mg/dL
